Data as given in patent US5639778A, “Indoletetralins having dopaminergic activity” (Pharmacia & Upjohn Company, priority 1995, dated 1997).
Where two headings read alike, the source gives them in different places.

What was measured:
[1] = test system: DOPA accumulation in the striatum (DA synthesis rate); assay: DOPA accumulation in striatum of reserpine-pretreated rats; format: in vivo, rat; conditions: for ED50: Rattus norvegicus, sc, 0.5 h, read-out: DOPA ED50 Stri.
Description: (§1) Effects on DOPA and 5-HTP accumulation in reserpine -
(§2) The animals were pretreated with reserpine (5 mg/kg, s.c.) 18 hours before the experiment. Test drugs were administered and immediately thereafter the motron activity was measured in photocell motility boxes. The rats were injected with the decarboxylase inhibitor NSD 1015 (100 mg/kg, s.c.) and killed 30 minutes later. The accumulation of DOPA in the striatum, limbic and […] and that of 5-HTP in the limbic forebrain was taken as a measure of the DA and 5-HT synthesis rates, respectively. The accumulation of DOPA in the cortex area was taken as a measure of NA synthesis rate. […] The same theory is valid for 5-HT receptor agonists and antagonists. Dose-response curves were constructed for each compound (4-5 dose levels, n=4) and the half-maximal decrease (ED50) was calculated.
(§3) P=partial decrease; maximal decrease was not reached at the highest dose (shown in brackets). The % decrease from control is also shown. NT=not tested. [drawing 4]

[2] = target: T1, serotonin 5-HT1A receptor (Rattus norvegicus, UniProt P19327); assay: in vitro affinity for brain serotonin 5-HT1A receptor sites, 8-OH-DPAT; conditions: non-pretreated, read-out: In vitro binding Ki 5HT1A
T1 construct: from tissue
T1 sequence (P19327 1-422): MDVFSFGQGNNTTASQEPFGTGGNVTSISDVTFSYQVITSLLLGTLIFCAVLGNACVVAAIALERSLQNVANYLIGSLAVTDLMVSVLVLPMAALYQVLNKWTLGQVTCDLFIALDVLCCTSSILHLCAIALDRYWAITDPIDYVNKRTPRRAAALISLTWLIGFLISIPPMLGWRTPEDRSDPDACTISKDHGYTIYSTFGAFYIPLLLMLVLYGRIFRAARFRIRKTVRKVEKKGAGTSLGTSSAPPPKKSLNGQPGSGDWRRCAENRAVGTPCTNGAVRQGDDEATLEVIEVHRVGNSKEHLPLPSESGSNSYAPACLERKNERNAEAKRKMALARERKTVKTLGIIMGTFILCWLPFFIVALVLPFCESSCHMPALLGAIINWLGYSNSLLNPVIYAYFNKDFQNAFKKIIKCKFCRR
From the text: (§4) pretreated rats. Also shown are the in vitro affinities for brain
(§5) dopamine (D2, Spiperone) and serotonin (5-HT1A, 8-OH-DPAT)
(§6) receptor sites in non-pretreated rats.

[3] = test system: 5-HTP accumulation in the limbic forebrain (5-HT synthesis rate); assay: 5-HTP accumulation in limbic forebrain of reserpine-pretreated rats; format: in vivo, rat
Description: as §1, §2, §3

[4] = test system: DOPA accumulation in the cortex (NA synthesis rate); assay: DOPA accumulation in cortex of reserpine-pretreated rats; format: in vivo, rat; conditions: for DOPA ED50 Cortex. (I/P symbol): s.c., number in brackets = highest dose, μmol/kg; for ED50: Rattus norvegicus, sc, 0.5 h, read-out: DOPA ED50 Cortex. (I/P symbol)
Description: as §1, §2, §3

[5] = target: T2, dopamine D2 receptor (D2CHO cells) (Homo sapiens, UniProt P14416); assay: binding experiments using D2CHO cells and Raclopride as the labeled ligand
T2 construct: expressed in transfected cells; host or cells: CHO cells (D2CHO)
T2 sequence (P14416 whole entry): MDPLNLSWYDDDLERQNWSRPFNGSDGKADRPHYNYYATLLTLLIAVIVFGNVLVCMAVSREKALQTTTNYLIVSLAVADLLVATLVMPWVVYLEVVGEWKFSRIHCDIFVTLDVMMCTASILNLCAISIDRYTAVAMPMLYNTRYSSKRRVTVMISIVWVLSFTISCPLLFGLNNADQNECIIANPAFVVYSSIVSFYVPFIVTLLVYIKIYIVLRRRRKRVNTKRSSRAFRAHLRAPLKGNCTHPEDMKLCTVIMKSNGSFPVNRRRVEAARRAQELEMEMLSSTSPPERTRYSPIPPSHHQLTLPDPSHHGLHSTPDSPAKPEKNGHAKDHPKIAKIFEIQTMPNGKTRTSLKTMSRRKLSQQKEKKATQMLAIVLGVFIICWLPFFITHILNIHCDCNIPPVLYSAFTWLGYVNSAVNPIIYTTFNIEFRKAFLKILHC
From the text: *Data from binding experiments using D2CHO cells and Raclopride as the […]

dopamine D2 receptor = target: T3, dopamine D2 receptor (Rattus norvegicus, UniProt P61169); assay: in vitro affinity for brain dopamine D2 receptor sites, Spiperone; format: binding; conditions: non-pretreated
T3 construct: from tissue
T3 sequence (P61169 whole entry): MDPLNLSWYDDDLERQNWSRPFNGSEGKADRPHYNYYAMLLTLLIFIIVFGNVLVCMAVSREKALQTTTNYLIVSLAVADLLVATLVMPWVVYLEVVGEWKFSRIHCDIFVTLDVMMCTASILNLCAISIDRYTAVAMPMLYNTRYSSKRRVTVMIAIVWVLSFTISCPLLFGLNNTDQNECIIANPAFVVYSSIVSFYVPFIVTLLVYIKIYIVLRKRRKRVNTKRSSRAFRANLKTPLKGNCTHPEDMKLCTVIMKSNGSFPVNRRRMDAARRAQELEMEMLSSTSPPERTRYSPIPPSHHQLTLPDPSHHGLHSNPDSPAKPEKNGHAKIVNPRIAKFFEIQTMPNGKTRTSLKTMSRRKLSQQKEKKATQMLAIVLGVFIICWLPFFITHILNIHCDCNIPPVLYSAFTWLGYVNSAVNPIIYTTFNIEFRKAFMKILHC
From the text: as §4, §5, §6

[6] = D2CHO cells, Raclopride as labeled ligand, read-out: In vitro binding Ki D2 (marked *)
[7] = Rattus norvegicus, sc, 0.5 h, read-out: 5-HTP ED50 Limbic (I/P symbol)
[8] = read-out: In vitro binding Ki D2-spip.

CCCN(CCC)[C@H]1CCc2c(ccc3[nH]ccc23)[C@H]1C (relative stereo) [Example 15, cis-(6-Methyl-6,7,8,9-tetrahydro-3H-benzo[e]-indol-7-yl)-dipropylamine]
DOPA Stri. % decrease from control ([1]; highest dose 50 μmol/kg s.c.): 35%
Ki [2]: 0.124 µM
5-HTP Limbic % decrease from control ([3]; highest dose 50 μmol/kg s.c.): 52%
DOPA Cortex. % decrease from control ([4]; highest dose 50 μmol/kg s.c.): 88%
Ki [5, 6]: 0.164 µM

CCCN(CCC)[C@H]1CCc2c(ccc3[nH]cc(C=O)c23)[C@H]1C (relative stereo) [Example 16, cis-7-Dipropylamino-6-methyl-6,7,8,9-tetrahydro-3H-benzo[e]-indole-1-carbaldehyde]
DOPA Stri. % decrease from control ([1]; highest dose 50 μmol/kg s.c.): 36%
ED50 [3, 7]: 50 µmol/kg
DOPA ED50 Cortex. (I/P symbol) [4]: I(50)
Ki [5, 6]: 0.924 µM

CCCN(CCC)C1CCc2c(ccc3[nH]ccc23)C1 (single isomer, unassigned; (+)) [7A(+), (+)-Dipropyl-(6,7,8,9-tetrahydro-benzo[e]indol-7-yl)-amine, reference compound]
Ki (dopamine D2 receptor; In vitro binding Ki D2-spip.): 0.035 µM
ED50 [1]: 0.12 µmol/kg
5-HTP Limbic % decrease from control ([3]; highest dose 12.5 μmol/kg s.c.): 80%
DOPA Cortex. % decrease from control ([4]; highest dose 12.5 μmol/kg s.c.): 67%

CCCN(CCC)C1CCc2c(ccc3[nH]cc(C=O)c23)C1 (single isomer, unassigned; (+)) [8(+), (+)-7-Dipropylamino-6,7,8,9-tetrahydro-3H-benzo[e]indole-1-carbaldehyde]
DOPA Stri. % decrease from control ([1]; highest dose 0.2 μmol/kg s.c.): 60%
ED50 [3, 7]: 0.2 µmol/kg
ED50 [4]: 0.2 µmol/kg

CCCN(CCC)C1CCc2c(ccc3[nH]ccc23)C1 (single isomer, unassigned; (-)) [7A(-), (-)-Dipropyl-(6,7,8,9-tetrahydro-benzo[e]indol-7-yl)-amine, reference compound]
Ki (dopamine D2 receptor; [8]): 0.257 µM
DOPA Stri. % decrease from control ([1]; highest dose 25 μmol/kg s.c.): 31%
Ki [2]: 1.45 µM
5-HTP Limbic % decrease from control ([3]; highest dose 25 μmol/kg s.c.): 68%
DOPA Cortex. % decrease from control ([4]; highest dose 25 μmol/kg s.c.): 73%

CCCN(CCC)C1CCc2c(ccc3c2NC(=O)C3=O)C1 (stereo not drawn) [Example 1, 7-Di-n-propylamino-6,7,8,9-tetrahydro-1H-benzo[g]indole-2,3-dione]
DOPA Stri. % decrease from control ([1]; highest dose 50 μmol/kg s.c.): 78%
Ki [2]: 9.93 µM
highest dose tested (ED50 not reached) ([3]; Rattus norvegicus, sc, 0.5 h, s.c., number in brackets = highest dose, μmol/kg, read-out: 5-HTP ED50 Limbic (I/P symbol)): 50 µmol/kg
Ki [5, 6]: 3.52 µM

CCCN(CCC)C1CCc2c(ccc3cc[nH]c23)C1 (stereo not drawn) [Example 2, Di-n-propyl-(6,7,8,9-tetrahydro-1H-benzo[g]indol-7yl)amine]
Ki (dopamine D2 receptor; [8]): 0.32 µM
DOPA Stri. % decrease from control ([1]; highest dose 50 μmol/kg s.c.): 48%
Ki [2]: 1.12 µM
5-HTP Limbic % decrease from control ([3]; highest dose 50 μmol/kg s.c.): 61%

CCCN(CCC)C1CCc2c(ccc3c2NC(=O)C3)C1 (stereo not drawn) [Example 4, 7-Di-n-propylamino-1,3,6,7,8,9-hexahydro-1H-benzo[g]indole-2-one]
Ki (dopamine D2 receptor; [8]): 15.9 µM
Ki [2]: 25.3 µM
ED50 ([3]; Rattus norvegicus, sc, 0.5 h, s.c., half-maximal decrease, reserpine-pretreated rats, read-out: 5-HTP ED50 Limbic): 5.8 µmol/kg

CCCN(CCC)C1COc2c(ccc3cc[nH]c23)C1 (stereo not drawn) [Example 5, Di-n-propyl-(1,6,7,8-tetrahydro-9-oxa-1-azacyclopenta[a]naphthylenee-7-yl)amine]
Ki (dopamine D2 receptor; [8]): 0.27 µM
DOPA Stri. % decrease from control ([1]; highest dose 3.1 μmol/kg s.c.): 26%
Ki [2]: 0.178 µM
5-HTP Limbic % decrease from control ([3]; highest dose 50 μmol/kg s.c.): 62%
DOPA ED50 Cortex. (I/P symbol) [4]: I(50)

CCCN(CCC)C1CCc2cc3[nH]ccc3cc2C1 (stereo not drawn) [Example 7, Di-n-propyl-(5,6,7,8-tetrahydro-1H-benzo[f]indol-6-yl)amine]
Ki (dopamine D2 receptor; [8]): 4.2 µM
DOPA Stri. % decrease from control ([1]; highest dose 50 μmol/kg s.c.): 48%
Ki [2]: 0.34 µM
ED50 [3, 7]: 50 µmol/kg

CCCN(CCC)C1CCc2c(ccc3[nH]ccc23)C1 (stereo not drawn) [Example 7A, Di-n-propyl-(6,7,8,9-tetrahydro-3H-benzo[e]indol-7-yl)amine, reference compound]
Ki (dopamine D2 receptor; In vitro binding Ki D2-spip.): 0.05 µM
ED50 [1]: 0.3 µmol/kg
Ki [2]: 0.5 µM
5-HTP Limbic % decrease from control ([3]; highest dose 3.1 μmol/kg s.c.): 72%
ED50 [4]: 12.5 µmol/kg

CCCN(CCC)C1CCc2c(ccc3[nH]cc(C=O)c23)C1 (stereo not drawn) [Example 8, 7-Di-n-propylamino-6,7,8,9-tetrahydro-3H-benzo [e]indole-1-carbaldehyde]
Ki (dopamine D2 receptor; In vitro binding Ki D2-spip.): 0.016 µM
ED50 [1]: 0.015 µmol/kg
Ki [2]: 2.6 µM
ED50 [3, 7]: 50 µmol/kg
DOPA Cortex. % decrease from control ([4]; highest dose 0.2 μmol/kg s.c.): 57%

CCCN(CCC)C1CCc2cc3[nH]cc(C=O)c3cc2C1 (stereo not drawn) [Example 9, 6-Di-n-propylamino-5,6,7,8-tetrahydro-1H-benzo [f]indole-3-carbaldehyde]
DOPA Stri. % decrease from control ([1]; highest dose 12.5 μmol/kg s.c.): 37%
ED50 [3, 7]: 12.5 µmol/kg
DOPA Cortex. % decrease from control ([4]; highest dose 12.5 μmol/kg s.c.): 85%
Ki [5, 6]: 0.278 µM

CCCN(CCC)C1CCc2c(ccc3[nH]cc(C#N)c23)C1 (stereo not drawn) [Example 10, 7-Di-n-propylamino-6,7,8,9-tetrahydro-3H-benzo[e]indole-1-carbonitrile]
ED50 [1]: 0.004 µmol/kg
ED50 [3, 7]: 3.1 µmol/kg
DOPA Cortex. % decrease from control ([4]; highest dose 3.1 μmol/kg s.c.): 79%
Ki [5]: 0.0101 µM

CCCN(CCC)C1CCc2c(ccc3ccoc23)C1 (stereo not drawn) [Example 17, Di-n-propyl-(6,7,8,9-tetrahydronaphtho[1,2-b]furan-7-yl)-amine]
ED50 [1]: 1 µmol/kg
ED50 [3, 7]: 33.3 µmol/kg
DOPA Cortex. % decrease from control ([4]; highest dose 33.3 μmol/kg s.c.): 79%
Ki [5]: 0.205 µM
